How the values were obtained:
[1] = tested on: G (+) bacteria (Streptococcus mutans, Streptococcus sobrinus); assay: in vitro bacterial disinfection by photodynamic therapy method (FIG. 8), G (+) bacteria; format: cell-based; conditions: photosensitizer plus infrared laser ray 808 nanometers, irradiation about 5 minutes
Excerpt: (§1) One group assay represents the different bacterial disinfection by using the photodynamic therapy method in vitro with a specific irradiated wavelength of the light, and the other group assay represents the different bacterial disinfection by using the photodynamic therapy method in vitro with a specific compound X and the specific irradiated wavelength of the light.
(§2) The light is infrared laser ray. The specific irradiated wavelength of the infrared laser ray of is 808 nanometers. The specific compound X is a photosensitizer. The photosensitizer is the indocyanine green dye. The period of irradiating the bacteria is about 5 minutes. The bacteria include gram positive (G (+)) bacteria and gram negative (G (−)) bacteria. The G (+) bacteria include a Streptococcus mutans (S. mutans) and a Streptococcus sobrinus (S. sobrinus). The G (−) bacteria include an Aggregatibacter actinomycetemcomitans (A. actinomycetemcomitans), a Fusobacterium nucleatum (F. nucleatum), and a Porphyromonas gingivalis (P. gingivalis).
(§3) Referring to FIG. 8, when the photodynamic therapy method in vitro uses the specific photosensitizer and the specific irradiated wavelength of the light, the G (+) bacterial show the percentage growth rate as zero, and the G (−) bacteria show the percentage growth rate as less than 20%.

[2] = tested on: G (−) bacteria (Aggregatibacter actinomycetemcomitans, Fusobacterium nucleatum, Porphyromonas gingivalis); assay: in vitro bacterial disinfection by photodynamic therapy method (FIG. 8), G (−) bacteria; format: cell-based; conditions: photosensitizer plus infrared laser ray 808 nanometers, irradiation about 5 minutes
Excerpt: as §1, §2, §3

CC1(C)C(/C=C/C=C/C=C/C=C2\N(CCCCS(=O)(=O)O)c3ccc4ccccc4c3C2(C)C)=[N+](CCCCS(=O)(=O)[O-])c2ccc3ccccc3c21 [specific photosensitizer, indocyanine green]
percentage growth rate of the bacteria [1]: zero
percentage growth rate of the bacteria [2]: less than 20%
